Key:
female sticklebacks = assay: Flow channel odour preference / mate choice experiment with sticklebacks; format: in vivo, Gasterosteus aculeatus
Procedure: The source of sticklebacks has been described (7). The flow channel set-up to evaluate mate choice determines odour preference, as a precursor of mate choice. Water was taken from the tank of a single male per trial and used both as stimulus (after addition of peptide(s)) and control (after addition of solvent) water. Peptides were added to the bottle with stimulus water just before the experiment at a final concentration of 1 mM; this becomes diluted to 5 nM in the water column passing through the test compartment. The following nona-peptides were used, MHC specificities indicated in brackets: […] (H2-K^b); […] and AAPDNRETF (H2-D^b); SYFPEITHI and SYIPSAEKI (H2-K^d). Peptides were synthesized by solid-phase 9-fluorenylmethoxycarbonyl chemistry. In experiments using a single peptide, AAPDNRETF was used. All experiments were performed in double-blinded fashion as described. Statistical analysis was performed with JMP 4.
The binding preferences for peptides of MHC molecules of sticklebacks are unknown; therefore synthetic peptides derived from endogenous mouse and viral proteins that are ligands for different mouse MHC molecules were used. Such peptides almost certainly appear foreign to sticklebacks irrespective of their MHC genotypes. Gravid females prefer water from a tank harbouring a male to that from a tank with fresh water (Experiment A, Table 1). Therefore, it was tested whether addition of peptide(s) to water from individual males would alter the outcome of mate choice. Gravid females were presented with water from single males with and without the addition of a mixture of five different peptides in the two columns of a flow-channel.

human beings = assay: Odour evaluation of paired aqueous solutions by test persons (similar or different); format: in vivo; settings: 0.5 mM in phosphate buffered saline
Procedure: Several individuals were asked to evaluate the odour of a number of aqueous solutions. A prototypical MHC class I peptide (SLLPAIVEL), a known ligand of the A′02xx allele, or an equimolar mixture of the corresponding amino acids (S, L, P, A, I, V, E) were added to solvent (phosphate buffered saline) at final concentrations of 0.5 mM. These solutions were offered in pairs and the test persons were asked to decide whether the two solutions smelled similar or different. The probands easily distinguish peptides from amino acids.

[1] = Test pair Peptide vs. Amino acids

Row | Sequence | Time spent on side of water source 2 (female sticklebacks; Experiment B, gravid females, Fresh + 1 peptide vs Fresh + solvent, 5 nM in water column, n=24) | Attractiveness of peptide in plain tank water (in words) (female sticklebacks; Experiment B, gravid females, plain tank water) | Time spent on side of water source 2 (female sticklebacks; Experiment C, gravid females, Male + 1 peptide vs Male + solvent, 5 nM, n=25) | Time spent on side of water source 2 (female sticklebacks; Experiment C, gravid females, Male + 1 peptide vs Male + solvent, 5 nM, n=25, listed as one peptide) | Time spent on side of water source 2 (female sticklebacks; Experiment E, non-gravid females, Male + 1 peptide vs Male + solvent, 5 nM, n=25) | Preference for male water with vs without peptide (in words) (female sticklebacks; Experiment E, non-gravid fish, male water) | Excess time spent on the side of peptide-supplemented male water (female sticklebacks; gravid females, male water, excess over 300 sec) | Probands scoring difference (human beings; [1]) | Probands scoring difference (fraction) (human beings; [1]) | Probands scoring difference (human beings; Test pair Peptide vs. Peptide) | Probands scoring difference (fraction) (human beings; Test pair Peptide vs. Peptide)
1 | AAPDNRETF [1 peptide, synthetic nona-peptide, H2-D^b ligand; used in experiments using a single peptide] | 291.8 ± 24.6 s | not attractive | 327.7 ± 24.8 s | 327.7 ± 24.8 s | 308.1 ± 23.5 s | no preference was observed | 27.7 ± 12.4 s |  |  |  | 
2 | SLLPAIVEL [Peptide, prototypical MHC class I peptide, known ligand of the A*02xx allele] |  |  |  |  |  |  |  | 13/14 | (0.93) | 1/14 | (0.07)
